Assay [1] deals with endogenous NAMPT in U2OS cells. The assay can be described thus: Cellular NAD+ modulation assay (NAD/NADH-Glo, U2OS cells). The assay is classed as cell-based. The settings on record: Homo sapiens; for maximal fold induction: read-out: Cellular Emax. The gist of the method: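 NAD/NADH-Glo luminescence quantified NAD+ after acid treatment (60 °C, 15 min) and neutralization of DTAB lysates. Beforehand, U2OS cells seeded 16 h earlier received compound concentration series for 24 h at 37 °C. Values given as half-maximal activation concentration (EC50) and maximal fold change versus DMSO (Emax).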

Assay [2] concerns the target T1, human enzyme NAMPT (full length) (Homo sapiens, UniProt P43490).
T1 construct: human enzyme NAMPT (full length)
The assay can be described thus: NMN fluorescence biochemical assay (stimulation of NMN synthesis by NAMPT). The settings on record: for EC50: concentration giving half-maximal activation, read-out: Enzymatic EC50; for Enzymatic Emax: fold change of maximal activation compared to DMSO. The gist of the method:
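Full-length human NAMPT (100 nM) was preincubated 15 min at 37 °C with compound in 50 mM Tris-HCl pH 7.5, 10 mM MgCl2, 2 mM DTT, then reacted 1 h at 37 °C with 50 μM NAM, 100 μM PRPP, 4 mM ATP (stated solution concentrations). NMN was derivatised with acetophenone/KOH then formic acid and read at Ex/Em 382/445 nm; EC50 and Emax (fold over DMSO) reported.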

[3] abbreviates: 24 hours incubation, cellular NAD+.
The mark [4] stands for this setting: NMN fluorescence assay, purified human NAMPT 100 nM.
[5] abbreviates: 24 hours incubation with compound.
The mark [6] stands for this setting: NMN synthesis by purified human NAMPT (100 nM).

The values that follow come from patent publication US20260078130A1, “NAMPT MODULATORS, PREPARATIONS, AND USES THEREOF” (SIRONAX LTD., priority 2022, published 2026).

Like-named read-outs stand apart in the source and are kept apart here.

T1 sequence (P43490 whole entry): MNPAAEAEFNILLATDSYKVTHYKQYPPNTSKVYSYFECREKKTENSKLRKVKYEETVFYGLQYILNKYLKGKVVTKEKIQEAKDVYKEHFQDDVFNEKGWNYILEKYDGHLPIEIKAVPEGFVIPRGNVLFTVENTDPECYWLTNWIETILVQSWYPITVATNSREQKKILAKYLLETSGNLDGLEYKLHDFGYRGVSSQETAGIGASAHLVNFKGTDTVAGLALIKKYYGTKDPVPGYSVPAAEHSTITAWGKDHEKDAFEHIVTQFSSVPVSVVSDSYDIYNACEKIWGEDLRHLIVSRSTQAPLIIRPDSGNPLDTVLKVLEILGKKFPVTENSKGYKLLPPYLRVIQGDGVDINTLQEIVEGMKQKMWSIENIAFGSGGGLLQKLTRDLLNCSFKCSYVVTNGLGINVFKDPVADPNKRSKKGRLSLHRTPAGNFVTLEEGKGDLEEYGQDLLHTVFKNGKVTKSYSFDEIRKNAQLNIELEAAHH

Consider `Cn1ncc(Cl)c1CC1c2cc(F)ccc2S(=O)(=O)N1CC1CC2(CNC(=O)O2)C1` (stereo not drawn) [Compound 563, 2-((3-((4-chloro-1-methyl-1H-pyrazol-5-yl)methyl)-5-fluoro-1,1-dioxidobenzo[d]isothiazol-2(3H)-yl)methyl)-5-oxa-7-azaspiro[3.4]octan-6-one], for which the EC50 (in general, the concentration that produces a half-maximal response) in assay [1] (setting [3]) was < 500 nM; in assay [2] (setting [4]), 500 to 5000 nM. Further, the maximal fold induction in assay [1] (setting [3]) was > 1.5. Further, the “Enzymatic Emax” value in assay [2] is recorded as “A (A>3)”.
For `COc1ccc(CN2C(=O)c3ccccc3C2Cc2c(Cl)ccc(=O)n2C)cn1` (stereo not drawn) [Compound 609, 3-((3-chloro-1-methyl-6-oxo-1,6-dihydropyridin-2-yl)methyl)-2-((6-methoxypyridin-3-yl)methyl)isoindolin-1-one] the same measures were 500 to 5000 nM, 500 to 5000 nM, > 1.5 and “B (3≥B>2)”.
The corresponding values for `O=C1NC(=O)C2(CC(CN3C(=O)c4ccccc4C3Cc3ncccc3Br)C2)O1` (stereo not drawn) [Compound 476, 2-((1-((3-bromopyridin-2-yl)methyl)-3-oxoisoindolin-2-yl)methyl)-5-oxa-7-azaspiro[3.4]octane-6,8-dione] are 5000 to 50000 nM, ≥ 5000 nM, > 1.5 and “B (3≥B>2)”.
For the compound `O=C1c2ccccc2C(Cc2ncccc2Br)N1Cc1ccc2[nH]c(=O)oc2c1F` (stereo not drawn) [Compound 224, 6-((1-((3-bromopyridin-2-yl)methyl)-3-oxoisoindolin-2-yl)methyl)-7-fluorobenzo[d]oxazol-2(3H)-one], in assay [1] (setting [5]), the EC50 lay in the range of 500 to 5000 nM and the maximal fold induction is > 1.5. In addition, in assay [2] (setting [6]), the EC50 is < 500 nM. Further, in assay [2], the “Enzymatic Emax” value is “A (A>3)”.
Take `O=C1NCC2(CC(CN3C(=O)c4ccccc4C3Cc3nnn(C4CC4)c3Cl)C2)O1` (stereo not drawn) [Compound 471, 2-((1-((5-chloro-1-cyclopropyl-1H-1,2,3-triazol-4-yl)methyl)-3-oxoisoindolin-2-yl)methyl)-5-oxa-7-azaspiro[3.4]octan-6-one]: in assay [1] (setting [3]), the EC50 is < 500 nM and the maximal fold induction was > 1.5. Besides, the concentration for a half-maximal effect (EC50) in assay [2] (setting [4]) was 500 to 5000 nM. Also, in assay [2], the “Enzymatic Emax” value is on record as “B (3≥B>2)”.
The corresponding values for `Cn1ncc(Cl)c1CC1c2cc(F)ccc2C(=S)N1CC1CC2(CNC(=O)O2)C1` (stereo not drawn) [Compound 521, 2-((3-((4-chloro-1-methyl-1H-pyrazol-5-yl)methyl)-5-fluoro-1-thioxoisoindolin-2-yl)methyl)-5-oxa-7-azaspiro[3.4]octan-6-one] are 500 to 5000 nM, > 1.5, < 500 nM and “B (3≥B>2)”.
With `O=C1c2ccccc2C(CC2=CCOCC2)N1Cc1ccc2[nH]c(=O)oc2c1` (stereo not drawn) [Compound 225, 6-((1-((3,6-dihydro-2H-pyran-4-yl)methyl)-3-oxoisoindolin-2-yl)methyl)benzo[d]oxazol-2(3H)-one], in assay [1] (setting [5]), the EC50 was in the range of 500 to 5000 nM and the maximal fold induction was > 1.5. Also, the EC50 in assay [2] (setting [6]) lay in the range of 500 to 5000 nM. In addition, in assay [2], the “Enzymatic Emax” value is on record as “A (A>3)”.
For `O=C1c2ccccc2C(Cc2ccccc2F)N1Cc1ccc2[nH]c(=O)oc2c1` (stereo not drawn) [Compound 146, 6-((1-(2-fluorobenzyl)-3-oxoisoindolin-2-yl)methyl)benzo[d]oxazol-2(3H)-one], in assay [1] (setting [5]), the 50% effective concentration (EC50) was < 500 nM and the maximal fold induction is > 1.5. The concentration giving a half-maximal response (EC50) in assay [2] (setting [6]) was < 500 nM. Besides, the “Enzymatic Emax” value in assay [2] is “A (A>3)”.
On to `C/C(=C\c1c[nH]nn1)CN1C(=O)c2ccccc2C1Cc1ncccc1Br` (stereo not drawn) [Compound 416, (E)-3-((3-bromopyridin-2-yl)methyl)-2-(2-methyl-3-(1H-1,2,3-triazol-4-yl)allyl)isoindolin-1-one], for which the EC50 in assay [1] (setting [3]) and in assay [2] (setting [4]) was < 500 nM in each case. Also, the maximal fold induction in assay [1] (setting [3]) is > 1.5. The “Enzymatic Emax” value in assay [2] is reported as “B (3≥B>2)”.
For the compound `COc1ncc(CN2C(=O)c3ccccc3C2Cc2c(Cl)cnn2C)s1` (stereo not drawn) [Compound 591, 3-((4-chloro-1-methyl-1H-pyrazol-5-yl)methyl)-2-((2-methoxythiazol-5-yl)methyl)isoindolin-1-one], in assay [1] (setting [3]), the EC50 was in the range of 500 to 5000 nM and the maximal fold induction was in the range of 1.2 to 1.5. Further, the EC50 in assay [2] (setting [4]) is ≥ 5000 nM. Further, the “Enzymatic Emax” value in assay [2] was “B (3≥B>2)”.
For `O=C1NCC2(CC(CN3C(=O)c4ccccc4C3Cc3c(Cl)nc4ccccn34)C2)O1` (stereo not drawn) [Compound 488, 2-((1-((2-chloroimidazo[1,2-a]pyridin-3-yl)methyl)-3-oxoisoindolin-2-yl)methyl)-5-oxa-7-azaspiro[3.4]octan-6-one] the same measures were < 500 nM, > 1.5, 500 to 5000 nM and “B (3≥B>2)”.
In the case of `COc1ccc(CN2C(=O)c3ccccc3C2Cc2c(C)ncnc2C#N)cc1` (stereo not drawn) [Compound 597, 5-((2-(4-methoxybenzyl)-3-oxoisoindolin-1-yl)methyl)-6-methylpyrimidine-4-carbonitrile], in assay [1] (setting [3]), the EC50 was < 500 nM and the maximal fold induction was > 1.5. Besides, the EC50 in assay [2] (setting [4]) is 500 to 5000 nM. For the same compound, the “Enzymatic Emax” value in assay [2] was “B (3≥B>2)”.
As for `N#CCn1cc(Cl)c(CC2c3ccccc3C(=O)N2Cc2ccc3[nH]nnc3c2)n1` (stereo not drawn) [Compound 410, 2-(3-((2-((1H-benzo[d][1,2,3]triazol-5-yl)methyl)-3-oxoisoindolin-1-yl)methyl)-4-chloro-1H-pyrazol-1-yl)acetonitrile], in assay [1] (setting [3]), the EC50 fell in the range of 500 to 5000 nM and the maximal fold induction is > 1.5. Also, the EC50 in assay [2] (setting [4]) was < 500 nM. Moreover, the “Enzymatic Emax” value in assay [2] is listed as “B (3≥B>2)”.
Turning to `CC(c1ccc(O)cc1)N1Cc2ccccc2C1=O` (stereo not drawn) [Compound 45, 2-(1-(4-hydroxyphenyl)ethyl) isoindolin-1-one], in assay [1] (setting [5]), the EC50 lay within 500 to 5000 nM and the maximal fold induction is 1.2 to 1.5. Besides, the EC50 in assay [2] (setting [6]) was ≥ 5000 nM. The “Enzymatic Emax” value in assay [2] is given as “B (3≥B>2)”.
Take `N#Cc1cncc(Cl)c1CC1c2ccccc2C(=O)N1Cc1ccc2[nH]nnc2c1` (stereo not drawn) [Compound 278, 4-((2-((1H-benzo[d][1,2,3]triazol-5-yl)methyl)-3-oxoisoindolin-1-yl)methyl)-5-chloronicotinonitrile]: the EC50 in assay [1] (setting [5]) and in assay [2] (setting [6]) was < 500 nM in each case. Also, in assay [1] (setting [5]), the maximal fold induction is > 1.5. Further, the “Enzymatic Emax” value in assay [2] is on record as “A (A>3)”.
Turning to `Cn1nc(C(F)(F)F)c(Cl)c1CC1c2ccccc2C(=O)N1Cc1ccc2[nH]nnc2c1` (stereo not drawn) [Compound 362, 2-((1H-benzo[d][1,2,3]triazol-5-yl)methyl)-3-((4-chloro-1-methyl-3-(trifluoromethyl)-1H-pyrazol-5-yl)methyl)isoindolin-1-one], in assay [1] (setting [3]), the EC50 was < 500 nM and the maximal fold induction was > 1.5. In addition, in assay [2] (setting [4]), the EC50 is < 500 nM. Further, the “Enzymatic Emax” value in assay [2] is given as “B (3≥B>2)”.
On to `Cn1nc(C(F)F)c(Cl)c1CC1c2ccccc2C(=O)N1Cc1ccc2[nH]nnc2c1` (stereo not drawn) [Compound 361, 2-((1H-benzo[d][1,2,3]triazol-5-yl)methyl)-3-((4-chloro-3-(difluoromethyl)-1-methyl-1H-pyrazol-5-yl)methyl)isoindolin-1-one], for which, in assay [1] (setting [3]), the EC50 was < 500 nM and the maximal fold induction is > 1.5. Besides, in assay [2] (setting [4]), the EC50 is < 500 nM. In assay [2], the “Enzymatic Emax” value is “B (3≥B>2)”.
With `COc1ccc(CN2C(=O)c3ccc(C4CC4)cc3C2Cc2c(Cl)cnn2C)cn1` (stereo not drawn) [Compound 623, 3-((4-chloro-1-methyl-1H-pyrazol-5-yl)methyl)-5-cyclopropyl-2-((6-methoxypyridin-3-yl)methyl)isoindolin-1-one], in assay [1] (setting [3]), the EC50 fell in the range of 500 to 5000 nM and the maximal fold induction is > 1.5. Moreover, the EC50 in assay [2] (setting [4]) is ≥ 5000 nM. In addition, the “Enzymatic Emax” value in assay [2] is given as “A (A>3)”.
For `Cn1ncc(Cl)c1CC1c2cc(Cl)cc(F)c2C(=O)N1CC1CC2(CNC(=O)O2)C1` (stereo not drawn) [Compound 510, 2-((6-chloro-1-((4-chloro-1-methyl-1H-pyrazol-5-yl)methyl)-4-fluoro-3-oxoisoindolin-2-yl)methyl)-5-oxa-7-azaspiro[3.4]octan-6-one] the same measures were < 500 nM, > 1.5, < 500 nM and “A (A>3)”.
For `Cn1ncc(Cl)c1CC1c2ccc(F)cc2C(=O)N1Cc1ccc2[nH]nnc2c1` (stereo not drawn) [Compound 340, 2-((1H-benzo[d][1,2,3]triazol-5-yl)methyl)-3-((4-chloro-1-methyl-1H-pyrazol-5-yl)methyl)-6-fluoroisoindolin-1-one] the same measures were < 500 nM, > 1.5, < 500 nM and “A (A>3)”.
Consider `COc1ccc(CN2C(=O)c3ccccc3C2Cc2c(Cl)ccn(C)c2=O)cn1` (stereo not drawn) [Compound 625, 3-((4-chloro-1-methyl-2-oxo-1,2-dihydropyridin-3-yl)methyl)-2-((6-methoxypyridin-3-yl)methyl)isoindolin-1-one], for which, in assay [1] (setting [3]), the half-maximal effective concentration (EC50) was in the range of 500 to 5000 nM and the maximal fold induction is > 1.5. For the same compound, in assay [2] (setting [4]), the EC50 was in the range of 500 to 5000 nM. In addition, the “Enzymatic Emax” value in assay [2] is “A (A>3)”.
